# Assay results from patent publication US20220395476A1, “DRUG FOR TREATING ARTERY-RELATED DISEASES, AND USE THEREOF” (SHANGHAI INSTITUTE OF MATERIA MEDICA, CHINESE ACADEMY OF …, priority 2019, published 2022).
# How the values were obtained:
# [1] = tested on: aneurysm induced by porcine pancreatic elastase in C57BL/6 mice; assay: Aneurysm model induced by porcine pancreatic elastase (PPE model); format: in vivo, mouse; details: for diameter of aneurysms: 20 mg/kg intraperitoneal injection from Day 5 for 10 days
# Method: (§1) The mouse was anesthetized by intraperitoneal injection of 1% pentobarbital sodium at the dose of 20 mg/kg. After the mouse entering anesthesia state, the abdominal hair was shaved off with a razor and further thoroughly depilated with depilatory cream. The abdomen was dried and the mouse was fixed on the operating table. Its body temperature was kept with a heating pad under the body. The abdominal skin was wiped with iodine and deiodined with 75% ethanol. An incision of about 1.5 cm was cut in the middle of the abdomen. The organs were carefully pushed away with tweezers. Then the intestine was divided to the left and right sides with gauze wetted with 3% penicillin-streptomycin. The connective tissue and muscle tissue on the surface of the aorta were carefully separated with tweezers to fully expose the abdominal aorta.
# (§2) Sterilized absorbent paper (0.3 cm×0.3 cm) was fully infiltrated in porcine pancreatic elastase (PPE), and then applied on the exposed abdominal aorta for 50 minutes. A gauze wetted with normal saline containing 3% penicillin-streptomycin was placed on the abdominal incision to prevent the abdominal water from excessive loss. After 50 minutes, the absorbent paper on the aorta was carefully taken away. The abdominal cavity was rinsed with normal saline containing 3% penicillin-streptomycin. The peritoneum and skin were sutured with ⅜ suture needle and 5/0 suture line. After suturing, the wound was wiped with iodine and deiodined with 75% ethanol after 1 min. The mouse was placed into a clean feeding cage and can eat and drink freely.
# (§3) Sample Fixation, Dehydration, Paraffin Embedding and Slicing 100 ml of formaldehyde, 4 g of sodium dihydrogen phosphate and 6.5 g of disodium hydrogen phosphate were dissolved in 900 ml of distilled water to prepare a polyoxymethylene fixed solution with a volume ratio of 10%. The aortic tissue was fixed in polyoxymethylene fixation solution for 72 hours, then washed with tap water for 4-6 hrs and placed in the dehydrator. The program was set for automatic dehydration, with 75% ethanol for 1.5 hours, 95% ethanol for 1.5 hours, 100% ethanol for 1.5 hours, dimethylbenzene for 1.5 hours and paraffin for 1.5 hours, successively. The paraffin embedding machine was opened 2 hours in advance to melt paraffin, and the temperature was controlled at 60° C. After the paraffin was melted, the dehydrated aortic tissue was embedded in paraffin. It was poured into the embedding box, and the paraffin soaked tissue block was placed into the embedding frame using heated tweezers and gently moved to the cold table. The paraffin block was taken off for slicing after the paraffin was solidified. Before slicing, the paraffin block was put into refrigerator for pre-cooling. After cooling, the paraffin block was cut into continuous 5 μM-thick paraffin sections using the slicer. The sections were unfolded on warm water at 38° C. in a slide spreader, fished with slides coated with APES, and dried naturally for subsequent histopathological staining.
# The tissue was fixed, embedded and cut into 4 μM paraffin sections. […]
# [2] = tested on: aneurysms, intramural hematomas and arterial dissections induced by porcine pancreatic elastase and 1% β-aminopropionitrile in C57BL/6 mice; assay: Aneurysm, intramural hematoma and arterial dissection model induced by porcine pancreatic elastase and 1% β-aminopropionitrile (PPE+BAPN model); format: in vivo, mouse; details: for histological analysis of the vessel wall: Day 15
# Method: as §1
# as §2, with “away. And the” for “away. The”, “feeding cage, fed with 1% β-aminopropionitrile (BAPN) feed” for “feeding cage”, “freely. The feed was changed every other day.” for “freely.”
# as §3
# The tissue was fixed, embedded and cut into 4 μM paraffin sections. The paraffin sections were firstly baked (65° C., 60 minutes), and then dewaxed to aqueous phase (dimethylbenzene for 15 minutes→absolute ethanol for 5 minutes→95% ethanol for 5 minutes→75% ethanol for 5 minutes→running water for 1 minute); stained with hematoxylin for 15 minutes and then rinsed with running water for 4 minutes; differentiated with 1% ethanol hydrochloride for 5 seconds (the differentiation time was adjusted according to the preparation time of differentiation solution) and rinsed with running water for 5 minutes; then stained with eosin for 1 minute and placed in water for 1 minute; dehydrated and then permeated with dimethylbenzene (75% ethanol for 5 minutes→95% ethanol for 5 minutes→absolute ethanol for 5 minutes→dimethylbenzene for 15 minutes) and sealed with neutral gum.
# [3] = evaluated Day 15, vs model control
# [4] = 100 mg/kg intraperitoneal injection from Day 5 for 10 days
# [5] = 100 mg/kg intraperitoneal injection from Day 5 for 10 days, evaluated Day 15
# [6] = 100 mg/kg intragastric administration from Day 5 for 10 days, evaluated Day 15
# [7] = 50 mg/kg orally via gavage from Day 5 for 10 days, evaluated Day 15
Molecule,"histological analysis of the vessel wall [2, 4]","diameter / expansion of aneurysm (maximum blood vessel diameter of arteriopathy site) [2, 5]","occurrence of intramural hematoma and arterial dissection [2, 5]",further results
O=C(O)/C=C/c1ccc(O)c(O)c1 [Caffeic acid],,,,"diameter of aneurysms [1, 3]: significantly reduced the diameter and expansion of aneurysm in mouse (P<0.01)"
Cc1ccc(C(C)C)cc1O [Carvacrol],reduced the thickness of vessel wall and protected the integrity of vessel structure,significantly reduced the diameter of infrarenal aneurysm in mouse (P<0.001),"reduced the occurrence of infrarenal aneurysm, intramural hematoma and arterial dissection in mouse",
O=c1ccc2ccccc2o1 [Coumarin],,,,"diameter of infrarenal aneurysm [2, 6]: significantly reduced the diameter of infrarenal aneurysm in mouse"
O=C(O)[C@H](O)Cc1ccc(O)c(O)c1 [Danshensu],,,,"diameter of aneurysms [1, 3]: significantly reduced the diameter and expansion of aneurysm (P<0.01)"
C=CCc1ccc(O)c(OC)c1 [Eugenol],,significantly reduced the diameter of infrarenal aneurysm in mouse (P<0.01),reducing the occurrence of infrarenal artery intramural hematoma and arterial dissection and the arterial rupture in mouse,"diameter of infrarenal aneurysm [2, 6]: significantly reduced the diameter of infrarenal aneurysm in mouse (P<0.001); occurrence of infrarenal artery intramural hematoma and arterial dissection [2, 6]: reducing the occurrence of infrarenal artery intramural hematoma and arterial dissection in mouse"
COc1cc(/C=C/C(=O)O)ccc1O [Ferulic acid],"protected the integrity of vessel structure, inhibited the degradation of elastic layer, inhibited the occurrence of intramural hematoma",significantly reduced the expansion of aneurysm in mouse (P<0.001),"significantly reduced the occurrence of intramural hematoma and arterial dissection, and the arterial rupture in mouse","diameter of aneurysms [1, 3]: significantly reduce the diameter of aneurysms in mouse (P<0.001)"
COC(=O)[C@@H](Cc1ccc(O)c(O)c1)OC(=O)/C=C/c1ccc(O)c(O)c1 [Methyl rosmarinate],reduced the thickness of vessel wall and protected the integrity of vessel structure,,"significantly reduced the occurrence of infrarenal aneurism, intramural hematoma and arterial dissection in mouse",
COc1ccc(C(C)=O)c(O)c1 [Paeonol],reduced the thickness of vessel wall and protected the integrity of vessel structure,significantly reduced the diameter of infrarenal aneurysm in mouse (P<0.001),reduced the occurrence of infrarenal artery intramural hematoma and arterial dissection in mouse,
O=C(/C=C/c1ccc(O)c(O)c1)OCCc1ccccc1 [Phenethyl caffeate],reduced the thickness of vessel wall and protected the integrity of vessel structure,significantly reduced the diameter of artery expansion in mouse (P<0.01),"significantly reduced the occurrence of intramural hematoma and arterial dissection, and the arterial rupture in mouse","diameter of infrarenal aneurysms ([1]; 100 mg/kg orally via gavage from Day 5 for 10 days, evaluated Day 15, vs model control): significantly reduced the diameter of infrarenal aneurysms in mouse (P<0.001)"
"COc1cc(/C=C/C(=O)O)ccc1O [Piperazine ferulate, reference compound]",,,,"histological analysis of the vessel wall ([2]; 50 mg/kg orally via gavage from Day 5 for 10 days): reduced the thickness of vessel wall and protected the integrity of vessel structure; expansion of arteries (maximum blood vessel diameter) [2, 7]: significantly reduced the expansion of arteries in mouse (P<0.001); occurrence of aneurysm, intramural hematoma and arterial dissection [2, 7]: significantly reduced the occurrence of aneurysm, intramural hematoma and arterial dissection"
COc1cc2ccc(=O)oc2cc1O [Scopoletin],,,,"diameter of infrarenal aneurysm [2, 6]: significantly reduced the diameter of infrarenal aneurysm in mouse"
"CC(C)(C)C(=O)Oc1ccc(S(=O)(=O)Nc2ccccc2C(=O)NCC(=O)[O-])cc1.[Na+] [Sivelestat sodium, reference compound]",,,,"PPE (protective effect) ([1]; aneurysm model induced by porcine pancreatic elastase, mouse): ineffective; PPE + BAPN (protective effect) ([2]; aneurysm model induced by porcine pancreatic elastase and 1% β-aminopropionitrile, mouse): ineffective"
O=C(O)/C=C/c1ccc(O)cc1 [p-Coumaric acid],,,,"diameter of infrarenal aneurysm [2, 6]: significantly reduced the diameter of infrarenal aneurysm in mouse"
Aspirin eugenol ester,reduced the thickness of vessel wall and protected the integrity of vessel structure,,significantly reduced the occurrence of infrarenal artery intramural hematoma and arterial dissection in mouse (P<0.001),
